Source: patent publication US6831075B2, “Heterocyclic substituted pyrazolones” (Cephalon, Inc., priority 1999, dated 2004)

How the values were obtained:
Format in all cases: biochemical
baculoviral GST-MLK2KDLZ = target: T1, baculoviral GST-MLK2KDLZ (Homo sapiens, UniProt Q02779); test: Mixed Lineage Kinase-2 inhibition assay (Millipore Multiscreen plate, 32P); conditions: 1 uM compound, 100 μM ATP
T1 construct: 3 μg/ml of baculoviral GST-MLK2KDLZ; GST (N); host or cells: baculovirus expression system
Description: Inhibition of Mixed Lineage Kinase-2 Activity
(§1) Assays were performed using the Millipore Multiscreen plate format as described for MLK1. Each 50-μl assay mixture contained 20 mM Hepes, pH 7, 1 mM EGTA, 10 mM MgCl2, 1 mM DTT, 25 mM β-glycerophosphate, 100 μM ATP, 0.25 μCi [γ-^32P]ATP, 0.1% BSA, 500 μg/ml myelin basic protein (UBI #13-104), 2% DMSO, various concentrations of test compound, and 3 μg/ml of baculoviral GST-MLK2KDLZ. Samples were incubated for 15 min. at 37° C. The reaction was stopped by adding ice cold 50% TCA and the proteins were allowed to precipitate for 30 min at 4° C. The plates were then washed with ice cold 25% TCA Supermix scintillation cocktail was added, and the plates were allowed to equilibrate for 1-2 hours prior to counting.

baculoviral GST-MLK3KD = target: T2, baculoviral GST-MLK3KD (Homo sapiens, UniProt Q16584); test: Mixed Lineage Kinase-3 inhibition assay (Millipore Multiscreen plate, 32P); conditions: 1 uM compound, 100 μM ATP
T2 construct: 2 μg/ml of baculoviral GST-MLK3KD; GST (N); host or cells: baculovirus expression system
Description: Inhibition of Mixed Lineage Kinase-3 Activity
as §1, with “MLK1. Briefly, each” for “MLK1. Each”, “and 2” for “and 3”, “baculoviral GST-MLK3KD.” for “baculoviral GST-MLK2KDLZ.”, “15 min” for “15 min.”, “25% TCA.” for “25% TCA”

[1] = target: T3, recombinant human baculoviral VEGFR2 cyctoplasmic domain (Homo sapiens, UniProt P35968); test: VEGFR2 kinase inhibition assay (ELISA-based, time-resolved fluorescence); conditions: 1 uM compound, 30 μM ATP
T3 construct: recombinant human baculoviral VEGFR2 cyctoplasmic domain; host or cells: baculovirus expression system
T3 sequence (P35968 786-1356 limits assumed): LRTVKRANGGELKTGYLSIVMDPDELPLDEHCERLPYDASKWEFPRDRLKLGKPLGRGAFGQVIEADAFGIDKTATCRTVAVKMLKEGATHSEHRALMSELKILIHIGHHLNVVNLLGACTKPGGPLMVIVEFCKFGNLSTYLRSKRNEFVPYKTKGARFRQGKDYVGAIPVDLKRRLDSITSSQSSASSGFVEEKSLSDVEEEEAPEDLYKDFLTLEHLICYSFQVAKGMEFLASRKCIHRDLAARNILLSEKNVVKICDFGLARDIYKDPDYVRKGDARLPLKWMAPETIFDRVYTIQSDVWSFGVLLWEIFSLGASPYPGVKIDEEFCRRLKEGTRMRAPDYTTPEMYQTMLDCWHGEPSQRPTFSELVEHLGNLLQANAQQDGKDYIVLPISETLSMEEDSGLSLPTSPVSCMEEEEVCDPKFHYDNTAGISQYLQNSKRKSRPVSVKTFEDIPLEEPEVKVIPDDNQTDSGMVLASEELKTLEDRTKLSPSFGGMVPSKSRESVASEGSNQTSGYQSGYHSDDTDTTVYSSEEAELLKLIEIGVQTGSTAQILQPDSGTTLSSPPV

T1 sequence (Q02779 98-440 limits assumed): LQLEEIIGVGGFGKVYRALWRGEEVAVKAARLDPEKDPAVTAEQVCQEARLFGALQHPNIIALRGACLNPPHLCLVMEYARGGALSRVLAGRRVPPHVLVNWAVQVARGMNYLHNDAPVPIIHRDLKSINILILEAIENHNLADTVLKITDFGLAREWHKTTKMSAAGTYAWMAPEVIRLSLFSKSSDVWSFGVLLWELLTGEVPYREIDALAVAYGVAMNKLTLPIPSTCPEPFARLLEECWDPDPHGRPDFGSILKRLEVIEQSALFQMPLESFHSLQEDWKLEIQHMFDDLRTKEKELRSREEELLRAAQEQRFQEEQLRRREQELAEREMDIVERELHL
T2 sequence (Q16584 117-379 limits assumed): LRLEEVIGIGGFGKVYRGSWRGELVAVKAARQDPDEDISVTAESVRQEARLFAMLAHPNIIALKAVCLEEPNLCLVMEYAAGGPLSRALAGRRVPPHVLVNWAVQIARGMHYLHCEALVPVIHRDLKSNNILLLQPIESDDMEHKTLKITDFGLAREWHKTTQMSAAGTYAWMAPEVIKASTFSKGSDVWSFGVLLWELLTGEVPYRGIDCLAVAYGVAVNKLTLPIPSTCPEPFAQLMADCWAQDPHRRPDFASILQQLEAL

SMILES | MLK-2 Kinase % inhibition @ 1 uM (baculoviral GST-MLK2KDLZ) | MLK-3 Kinase % inhibition @ 1 uM (baculoviral GST-MLK3KD) | VEGFR-2 kinase % inhibition @ 1 uM [1] | inhibition at 1 µM (baculoviral GST-MLK2KDLZ; read-out: MLK-2 Kinase % inhibition @ 1 uM) | inhibition at 1 µM (baculoviral GST-MLK3KD; read-out: MLK-3 Kinase % inhibition @ 1 uM) | inhibition at 1 µM ([1]; read-out: VEGFR-2 kinase % inhibition @ 1 uM)
Cn1cccc1C1=NNC(=O)C1=Cc1c[nH]c2ccc(F)cc12 [Compound 56] | −14% | −1% | 8% |  |  | 
Cc1cc(C)c(C=C2C(=O)NN=C2c2cc3ccccc3o2)[nH]1 [Compound 57, 3-benzo[d]furan-2-yl-4-[(3,5-dimethylpyrrol-2-yl)methylene]-2-pyrazolin-5-one] |  |  |  | 5% | 67% | 30%
O=C1NN=C(c2cc3ccccc3o2)C1=Cc1c[nH]c2ccccc12 [Compound 58] | 4% | 43% | 47% |  |  | 
Cn1cc(C=C2C(=O)NN=C2c2cc3ccccc3o2)c2ccccc21 [Compound 59] | −8% | 47% | 14% |  |  | 
Cc1cc(C)c(C=C2C(=O)NN=C2c2cccs2)[nH]1 [Compound 61] | −4% | 72% | 75% |  |  | 
O=C1NN=C(c2cccs2)C1=Cc1c[nH]c2ccccc12 [Compound 62] | −21% | 45% | 52% |  |  | 
Cn1cc(C=C2C(=O)NN=C2c2cccs2)c2ccccc21 [Compound 63] | 1% | 78% | 75% |  |  | 
N#CCCn1cc(C=C2C(=O)NN=C2c2nccs2)c2ccccc21 [Compound 64] | 9% | 15% | 43% |  |  | 
N#CCCn1cc(C=C2C(=O)NN=C2c2ccoc2)c2ccccc21 [Compound 65] | −3% | 7% | 43% |  |  | 
N#CCCn1cc(C=C2C(=O)NN=C2c2cccs2)c2ccccc21 [Compound 66] | 5% | 11% | 32% |  |  | 
N#CCCn1cc(C=C2C(=O)NN=C2c2ccco2)c2ccccc21 [Compound 67] | −1% | 8% | 20% |  |  | 
O=C1NN=C(c2ccoc2)C1=Cc1cn(Cc2ccccc2)c2ccccc12 [Compound 68] | 16% | 20% | 26% |  |  | 
O=C1NN=C(c2ccco2)C1=Cc1cn(Cc2ccccc2)c2ccccc12 [Compound 69] | 4% | 9% | 5% |  |  | 
O=C1NN=C(c2nccs2)C1=Cc1cn(Cc2ccccc2)c2ccccc12 [Compound 70] | 5% | 15% | 51% |  |  | 
O=C1NN=C(c2ccco2)C1=Cc1cn(CCOCc2ccccc2)c2ccccc12 [Compound 71] | 3% | 9% | −1% |  |  | 
O=C1NN=C(c2nccs2)C1=Cc1cn(CCOCc2ccccc2)c2ccccc12 [Compound 72] | 3% | 28% | 3% |  |  | 
CC(C)Cn1cc(C=C2C(=O)NN=C2c2nccs2)c2ccccc21 [Compound 73] | 12% | 5% | 15% |  |  | 
O=C1NN=C(c2cccs2)C1=Cc1cn(Cc2ccccc2)c2ccccc12 [Compound 75] | −5% | 24% | 32% |  |  | 
